Assay results published in article PMC10537229, “Antimicrobial Peptides Originating from Expression Libraries of Aurelia aurita and Mnemiopsis leidyi Prevent Biofilm Formation of Opportunistic Pathogens” (Microorganisms, 2023).

Columns and labels:
S. aureus = assay: Growth of planktonic-growing pathogens (turbidity at 600 nm); type: cell-based, Staphylococcus aureus; conditions: 18 h
Procedure: (§1) In addition, the potential growth-inhibiting effects of synthetic peptides were tested on planktonic-growing pathogens. Again, 3 × 10^8 cells/mL diluted in LB medium were aliquoted in 96-well plates (200 µL for each cavity). Synthetic peptides were added to two selected final concentrations of 3.5 µg/mL and 112.5 µg/mL at the beginning of the experiment. MTPs were closed with gas-permeable membranes and gently shaken at 80 rpm and 37 °C (P. aeruginosa, S. aureus, and S. epidermidis) or 30 °C (K. oxytoca) for 18 h. A comparative endpoint determination (growth control, peptide control IDR-1018, and identified peptides) of the turbidity at 600 nm was measured with plate reader Spectra max Plus 384. An unpaired t-test was conducted as a statistical hypothesis test to determine the significance (p-value) of growth differences.

S. epidermidis = assay: as above; type: cell-based, Staphylococcus epidermidis; conditions: 18 h
Procedure: as §1

K. oxytoca [1] = assay: as above; type: cell-based, Klebsiella oxytoca; conditions: 112.5 µg/mL peptide, LB, 18 h, 80 rpm, 30 °C; mean of 2 biological x 8 technical replicates; control 1.21326667
Procedure: as §1

P. aeruginosa = assay: as above; type: cell-based, Pseudomonas aeruginosa; conditions: 18 h
Procedure: as §1

S. epidermidis RP62A = assay: Biofilm prevention in vitro assay (crystal violet, static); type: cell-based, Staphylococcus epidermidis; conditions: synthetic peptide at highest concentration 112.5 µg/mL, 18 h, versus biofilm control (100%)
Procedure: (§2) The opportunistic pathogenic bacteria K. oxytoca (DSM 7342, M5a1-type strain), P. aeruginosa PAO1 (DSM 1707, pathogenic-type strain), S. epidermidis RP62A (DSM 28319, clinical isolate from catheter sepsis), and S. aureus (DSM 11823, clinical isolate) were grown in 5 mL LB medium overnight at below-indicated temperatures. The cell concentrations of the overnight cultures were analyzed with Neubauer cell counting and set to 3 × 10^8 cells/mL using GC minimal medium (with 1% (v/v) glycerol and 0.3% (w/v) casamino acids) for K. oxytoca and Caso bouillon (17 g/L casein peptone, 3 g/L soybean peptone, 5 g/L NaCl, 2.5 g/L K2HPO4, and 2.5 g/L glucose) for the remaining strains in the crystal violet assay. Cultures were aliquoted in 96-well plates (180/195 µL for each cavity). Cell-free size-fractionated cell extracts (20 µL) and synthesized peptides (various concentrations, 5 µL) were added to the cultures. MTPs were closed with gas-permeable membranes (Breathe-Easy®, Diversified Biotech, Dedham, MA, USA) and incubated at 37 °C (P. aeruginosa, S. aureus, and S. epidermidis) or 30 °C (K. oxytoca) for 18 h without shaking. Three biological replicates were performed, each with eight technical replicates. Medium controls were performed for normalization. Biofilm formation was monitored and quantified using the crystal violet assay. Following an 18 h incubation period, the cell cultures were removed, and the wells underwent two washes with H2O. Biofilms that developed and adhered to the surfaces were subjected to staining using 200 μL of a 0.1% crystal violet solution (Carl Roth, Karlsruhe, Germany) for 10 min at room temperature (RT). The stained biofilms were left to air dry after eliminating the crystal violet solution through two H2O washes. A total of 200 μL of 96% ethanol was introduced into each stained well to solubilize the dye, and incubation at RT for 15 min followed. Biofilm formation was assessed by measuring the absorbance of resolved crystal violet at 590 nm with the plate reader Spectra max Plus 384 (Molecular Devices, Ismaning; Germany). The screening procedure is depicted in Figure S1.

[2] = test system: K. oxytoca, P. aeruginosa, S. epidermidis, and S. aureus; assay: Crystal violet biofilm assay, statements on all tested pathogens; type: cell-based; conditions: summary in discussion
Procedure: as §2, with “Three biological replicates were performed, each with eight technical replicates. Medium controls were performed for normalization.” left out, “Following an 18 h incubation period, the cell cultures were removed, and the wells underwent two washes with H2O. Biofilms that developed and adhered to the surfaces were subjected to staining using 200 μL of a 0.1% crystal violet solution (Carl Roth, Karlsruhe, Germany) for 10 min at room temperature (RT). The stained biofilms were left to air dry after eliminating the crystal violet solution through two H2O washes. A total of 200 μL of 96% ethanol was introduced into each stained well to solubilize the dye, and incubation at RT for 15 min followed.” left out, “The screening procedure is depicted in Figure S1.” left out

P. aeruginosa PAO1 = assay: Biofilm prevention in vitro assay (crystal violet, static); type: cell-based, Pseudomonas aeruginosa; conditions: 18 h
Procedure: as §2

K. oxytoca [3] = assay: as above; type: cell-based, Klebsiella oxytoca; conditions: synthetic peptide at highest concentration 112.5 µg/mL, 18 h, versus biofilm control (100%)
Procedure: as §2

K. oxytoca M5aI = assay: Dynamic biofilm formation in microfluidic flow cell (Syto9, CLSM); type: cell-based, Klebsiella oxytoca; conditions: peptide 10 ng/channel, GC medium, flow 15 µL/h, 24 h, 30 °C, mean ± SD of four biological x four technical replicates
Text: The microfluidic flow cell system comprises a polymethyl methacrylate corpus with a single channel (1 × 8 × 0.1 mm). Two inlets and one outlet exist. A borosilicate glass (24 × 60 × 0.17 mm; Carl Roth, Karlsruhe, Germany) was fixed with the adhesive Black-Seal silicone (Weicon, Münster, Germany). Microliter syringes (Innovative Labor System GmbH, Stützenbach, Germany) were connected via polytetrafluoroethylene (PTFE) tubes (0.3 mm × 0.6 mm) (Bola, Grünsfeld, Germany) with the in- and outlets and clamped into a syringe pump (Model: 220) (KD Scientific, Holliston, MA, USA). The channel was sterilized by rinsing 70% EtOH for 24 h at a flow rate of 20 µL/h. Afterwards, the remaining ethanol was washed out with sterile water at 20 μL/h for 1 h. Subsequently, the channel was equilibrated with GC medium at 20 μL/h for 2 h. Inoculation was conducted with a cell suspension of 1 × 10^9 cells/mL, generated from an overnight culture of K. oxytoca M5aI. Initial cell adhesion was ensured by incubation at 30 °C for 1 h without any flow. Next, the channel was continuously rinsed at 15 μL/h with GC medium injected within the first inlet. The synthetic peptides IDR-1018 (biofilm-preventing control peptide, [47, 48], BiP_Aa_2, BiP_Aa_5, and BiP_Aa_6 were diluted in GC medium to a concentration of 25 µg/mL and injected within the second inlet. Thus, the final peptide concentration was 12.5 µg/mL, corresponding to 10 ng peptide within the 0.8 µL channel. Biofilm formation was conducted at a flow rate of 15 µL/h for 24 h at 30 °C. The biofilm formation of K. oxytoca M5aI was further studied without adding peptides. Four biological replicates were conducted for each treatment.
Biofilms were stained with the fluorescent dye Syto9 (488 nm) (Life Technologie, Carlsbad, CA, USA) and analyzed using the LSM 700 confocal laser scanning microscope (Zeiss, Oberkochen, Germany). Therefore, the microfluidic flow cells were washed with GC medium at 3 µL/min for 15 min. The channel was then filled with a 1:1000 dilution of the fluorescent dye Syto9 and incubated in the dark at RT for 30 min. Dye residues were removed by rinsing GC medium at 3 μL/min for 15 min. Four image stacks were recorded per flow cell with optical sections of 0.9 µm per z-step. The digital image acquisition, three-dimensional reconstruction, and calculation of the biofilm parameters were performed with the software “Zen Black” (version 14.0.22.201) (Zeiss, Oberkochen, Germany) and the microscopy image analysis software “Imaris” (version 9.9.0) (Oxford Instruments, Abingdon, UK).

[4] = 112.5 µg/mL, versus control without peptide

## VRNSVLFRRRRLVC [BiP_Aa_5, synthetic peptide from sORF of A. aurita EST clone 127_8F]
S. aureus; 112.5 µg/mL peptide, LB, 80 rpm, 37 °C, mean of 2 biological x 8 technical replicates, control 1.37192917
  turbidity (600 nm), S. aureus: 1.312
S. aureus; [4]
  reduction of planktonic growth of S. aureus: 1.5–5%
S. epidermidis; 112.5 µg/mL peptide, LB, 80 rpm, 37 °C, mean of 2 biological x 8 technical replicates, control 1.3398
  turbidity (600 nm), S. epidermidis: 1.301
S. epidermidis; [4]
  reduction of planktonic growth of S. epidermidis: 3%
K. oxytoca [1]
  turbidity (600 nm), K. oxytoca: 1.257
P. aeruginosa; 112.5 µg/mL peptide, LB, 80 rpm, 37 °C, mean of 2 biological x 8 technical replicates, control 1.2788369
  turbidity (600 nm), P. aeruginosa: 1.249
P. aeruginosa; [4]
  reduction of planktonic growth of P. aeruginosa: 1.5–5%
S. epidermidis RP62A
  reduction of S. epidermidis biofilm formation at 112.5 µg/mL: 22%
[2]
  reduction of biofilm masses, all tested pathogens: up to 50%
P. aeruginosa PAO1; synthetic peptide 0.4-112.5 µg/mL
  effect on P. aeruginosa biofilm formation (in words): slight interference
P. aeruginosa PAO1; synthetic peptide at highest dose 112.5 µg/mL, versus biofilm control (100%)
  reduction of P. aeruginosa biofilm formation at 112.5 µg/mL: 47%
K. oxytoca [3]
  reduction of K. oxytoca biofilm formation at 112.5 µg/mL: 54%
K. oxytoca M5aI; medium control 11 ± 6 µm
  biofilm thickness: 7 ± 2 µm
K. oxytoca M5aI; medium control 112 ± 62 µm^3
  biofilm volume: 51 ± 25 µm^3
